# According to US20040023884A1, “Biologically active peptides from functional domains of bactericidal/permeability-increasing protein and uses thereof” (priority 1993, published 2004):
# Ends that are not written are not given here.
# What was measured:
# [1] = test system: rough mutant E. coli J5 bacteria; assay: Radial diffusion bactericidal assay, E. coli J5; type: cell-based; conditions: for pmol added to well to achieve a 30 mm^2 bactericidal zone, E. coli J5: radial diffusion, PROBIT analysis, E. coli J5 (rough)
# In short: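 Log-phase bacteria, washed in 10 mM sodium phosphate pH 7.4, were seeded at 4×10^6 CFU/mL in underlayer agarose. BPI fragments (5 or 10 μL) went into 3 mm wells for 3 h at 37° C., then overlayer agarose was added. After overnight 37° C. incubation, clearing zones were measured by micrometer.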
# [2] = 3H-heparin binding assay (affinity and capacity); conditions: for Heparin Capacity: heparin bound at saturation; for Kd: read-out: Heparin Affinity; for cpm ^3H-Heparin bound: 100 picomoles of each fragment per well, saturating 3H-heparin 20 μg/mL, mean of duplicate wells ± range
# In short: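 Bound 3H-heparin was counted by liquid scintillation after 1 h incubation at 4 °C with fragments immobilised on PVDF-bottomed wells, then washing in blocking buffer. Signal was corrected for BSA-related background, and varying amounts of rBPI23 were used as positive control.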
# [3] = test system: E. coli 0113 LPS; assay: Limulus Amoebocyte Lysate (LAL) inhibition assay; type: biochemical; conditions: for LAL (relative difference): alanine variant relative to BPI.2
# Description: BPI proteolytic fragments produced according to Example 1 were subjected to a Limulus Amoebocyte Lysate (LAL) inhibition assay to determine LPS binding properties of these fragments. Specifically, each of the fragments were mixed in Eppendorf tubes with a fixed concentration of E. coli 0113 LPS (4 ng/mL final concentration) and incubated at 37° C. for 3 hours with occasional shaking. Addition controls comprising rBPI23 at 0.05 μg/mL were also tested. Following incubation, 360 μL of Dulbecco's phosphate buffered saline (D-PBS; Grand Island Biological Co. (GIBCO), Long Island, N.Y.) were added per tube to obtain an LPS concentration of 200 pg/mL for the LAL assay. Each sample was then transferred into Immulon II strips (Dynatech, Chantilly, Va.) in volumes of 50 μl per well.
# Limulus amoebocyte Lysate (Quantitative Chromogenic LAL kit, Whitaker Bioproducts, Inc., Walkersville, Md.) was added at 50 μL per well and the wells were incubated at room temperature for 25 minutes. Chromogenic substrate was then added at a volume of 100 μL per well and was well mixed. After incubation for 20 to 30 minutes at room temperature, the reaction was stopped with addition of 100 μL of 25% (v/v) acetic acid. Optical density at 405 nm was then measured in a multiplate reader (Model Vmax, […], Menlo Park, Calif.) with the results shown in FIG. 2 in terms of percent inhibition of LPS. In this Figure, the filled circle represents rBPI23; the open circle represents Asp-N fragment A3; the x represents Asp-N fragment A2, the filled square represents Asp-N fragment A4; the filled triangle represents Asp-N fragment A1A2; the open square represents Asp-N fragment A6a; the small open triangle represents CNBr fragment C3; and the small filled square represents CNBr fragment C1/C5.
# [4] = test system: E. coli 0111:B4 (smooth) bacteria; assay: Radial diffusion bactericidal assay, E. coli 0111:B4; type: cell-based; conditions: radial diffusion; PROBIT analysis; E. coli O111:B4 (smooth)
# [5] = test system: Staphylococcus aureus; assay: Radial diffusion bactericidal assay, Staphylococcus aureus; type: cell-based; conditions: radial diffusion; PROBIT analysis; S. aureus
# [6] = test system: C. albicans; assay: Radial diffusion fungicidal assay, Candida albicans; type: cell-based; conditions: radial diffusion
# [7] = test system: RAW 264.7 cells; assay: LPS neutralization cellular proliferation assay, RAW 264.7 cells; type: cell-based, mouse
# In short: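 Mouse RAW 264.7 cells were primed 24 h with 50U/mL mouse γ-interferon, then exposed about 15 h to E. coli O113 LPS in serum-free RPMI with or without BPI peptides at 25 ng/mL–50 μg/mL. Proliferation was quantified by [^3H]-thymidine uptake, 1 μCi/well, added at 5 h.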
# [8] = test system: Candida albicans; type: cell-based
Molecule,"pmol added to well to achieve a 30 mm^2 bactericidal zone, E. coli J5 [1]",Heparin Capacity [2] [ng],Kd [2] [nM],LAL (relative difference) [3],"pmol added to well to achieve a 30 mm^2 bactericidal zone, E. coli O111:B4 [4]",further results
IKISGKWKAQKAFLK [BPI.25],"8,203.50 pmol",107.2,346,= (no difference in the LAL assay),b (no detectable activity up to 5 μg/well),"heparin binding capacity, fold lower than the unsubstituted peptide [2]: ~2 fold; HEPKd (x Fold change in activity) ([2]; heparin binding affinity, relative to BPI.2): =1.0 x Fold"
IAISGKWKAQKRFLK [BPI.16],"7,550.90 pmol",127.25,231,= (no difference in the LAL assay),b (no detectable activity up to 5 μg/well),–
IKISGKWKAQARFLK [BPI.24],654.60 pmol,427.6,165,= (no difference in the LAL assay),"27,330.00 pmol",activity of position 95 substitution variants (in words) ([1]; activity not further specified): unexpected increase
IKISGKWKAQKRFLA [BPI.28],"6,194.40 pmol",156.6,266,= (no difference in the LAL assay),b (no detectable activity up to 5 μg/well),–
KSKVGWLIQLWHKK [BPI.82],171.32 pmol,163.1,427,–,"3,681.30 pmol","pmol added to well to achieve a 30 mm^2 bactericidal zone, S. aureus [5]: 11,027.00 pmol; C. albicans: pmol required for 30 mm^2 zone [6]: 518.43 pmol; EC50 (peptide concentration at which the growth inhibitory effect of LPS was reversed by 50%) [7]: 0.8 ± 0.1 µg/mL; IC50 (peptide concentration at which RAW cell growth was inhibited by 50%) [7]: 18.8 ± 0.8 µg/mL; MIC C. alb [8]: 3.13 µg/mL"
IKISAKWKAQKRFLK [BPI.19],"2,187.80 pmol",203.6,266,= (no difference in the LAL assay),b (no detectable activity up to 5 μg/well),"HEPCAP (x Fold change in activity) ([2]; heparin binding capacity, relative to BPI.2): =1.0 x Fold"
AKISGKWKAQKRFLK [BPI.15],"9,705.10 pmol",145.4,315,= (no difference in the LAL assay),b (no detectable activity up to 5 μg/well),–
IKISGKWAAQKRFLK [BPI.22],"2,546.80 pmol",135.7,315,= (no difference in the LAL assay),b (no detectable activity up to 5 μg/well),RDA (x Fold change in activity) ([1]; alanine variant relative to BPI.2): =1.0 x Fold
"C1,C5: unresolved mixture of CNBr fragments of rBPI23, residues 1-56 and 112-170 (protein, non-natural residues) chain 1: MRENMARGPCNAPRWVSLMVLVAIGTAVTAAVNPGVVVRISQKGLDYASQQGTAAL chain 2: SNANIKISGKWKAQKRFLKMSGNFDLSIEGMSISADLKLGSNPTSGKPTITCSSCSSHI",–,–,–,–,–,"cpm ^3H-Heparin bound [2]: 82,918 ± 4,462 cpm; IC50 relative to intact rBPI23 (fold higher) [3]: approximately 10 fold; IC50 ([3]; read-out: IC50 of inhibition of the LPS-induced LAL reaction): ~100 nM"
"A6a: Asp-N fragment of rBPI23, residues 116-193 (protein) IKISGKWKAQKRFLKMSGNFDLSIEGMSISADLKLGSNPTSGKPTITCSSCSSHINSVHVHISKSKVGWLIQLFHKKI",–,–,–,–,–,"cpm ^3H-Heparin bound [2]: 13,419 ± 309 cpm; LAL / LPS inhibition activity (in words) [3]: LAL inhibitory activity similar to intact rBPI23; concentration giving complete inhibition of the LPS-induced LAL reaction [3]: 15 nM"
